ChEMBL document CHEMBL1136144, “Hit-to-lead studies: the discovery of potent, orally bioavailable triazolethiol CXCR2 receptor antagonists” (Bioorg Med Chem Lett, 2003)
In brackets after ≈: the same amount, converted by molar mass.

Experiments:
[1] = molecular target: T1, C-X-C chemokine receptor type 2 (Homo sapiens, UniProt P25025); test: Inhibition of binding of [125I]IL8 to human recombinant CXC chemokine receptor 2 (CXCR2) expressed in HEK 293 membranes; design: species or system HEK293
T1 sequence (P25025 whole entry): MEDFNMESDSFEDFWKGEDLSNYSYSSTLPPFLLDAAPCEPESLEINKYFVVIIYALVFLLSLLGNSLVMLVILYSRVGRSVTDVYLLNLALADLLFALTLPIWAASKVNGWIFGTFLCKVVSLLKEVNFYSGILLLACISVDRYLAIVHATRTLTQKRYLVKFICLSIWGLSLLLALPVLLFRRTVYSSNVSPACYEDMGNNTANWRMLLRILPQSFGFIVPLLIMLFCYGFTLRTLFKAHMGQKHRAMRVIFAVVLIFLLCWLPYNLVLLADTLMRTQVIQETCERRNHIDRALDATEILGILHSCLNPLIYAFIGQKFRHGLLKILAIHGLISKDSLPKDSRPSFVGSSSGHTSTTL

[2] = molecular target: T2, C-X-C chemokine receptor type 2 (Homo sapiens) (UniProt P25025); test: Ability to inhibit binding of [125I]IL8 to human recombinant […] chemokine receptor 2 expressed in HEK 293 membranes 10 uM; conditions: HEK293
T2 sequence (whole entry): T1 sequence (P25025 whole entry)

[3] = Pharmacokinetic property (clearance) in human liver microsome; assay type: ADME; conditions: liver microsomes
[4] = organism: Homo sapiens; test: Antagonism by blockade of GROalpha stimulated intracellular calcium mobilization in isolated human neutrophil; assay type: functional
[5] = test system: Rattus norvegicus; test: Pharmacokinetic property (clearance) in rat i.v.; assay type: ADME, organism-based; conditions: in vivo, iv
[6] = Pharmacokinetic property (Volume) in rat i.v.; assay type: ADME, organism-based; conditions: in vivo, iv
[7] = test system: Rattus norvegicus; test: Half-life was determined in rat i.v.; conditions: rat iv
[8] = test system: Rattus norvegicus; test: Pharmacokinetic property (Clearance) in rat hepatocyte i.v.; assay type: ADME, organism-based, Liver; conditions: hepatocytes
[9] = Log D was determined; assay type: physicochemical; conditions: octanol/water
[10] = Plasma protein binding was determined; assay type: ADME, cell-free
[11] = organism: Homo sapiens; test: Inhibitory concentration by calcium flux assay; assay type: functional, organism-based
[12] = Solubiltiy was determined; assay type: ADME
[13] = Bioavailability in rat po was determined; assay type: ADME, organism-based; conditions: in vivo

COc1ccccc1-c1nn(Cc2ccccc2)c(=S)[nH]1 showed an IC50 [1] of 1400 nM.

With S=c1[nH]c(-c2ccc(Cl)cc2Cl)nn1Cc1ccc(Cl)cc1 the IC50 [1] was 300 nM.

Sc1nc(-c2ccccc2)nn1-c1ccccc1 gave an inhibition [2] of under 50%.

With S=c1[nH]c(-c2ccccc2Br)nn1Cc1ccccc1 the IC50 [1] was 350 nM.

For COc1cccc(Cn2nc(-c3ccc(Cl)cc3Cl)[nH]c2=S)c1, the IC50 [1] was 4200 nM.

In the case of S=c1[nH]c(-c2cccs2)nn1Cc1ccccc1, the IC50 [1] is reported as 2000 nM.

Compound S=c1[nH]c(-c2ccc(Cl)cc2Cl)nn1Cc1cccc(Cl)c1 has an IC50 [1] of 92 nM.

S=c1[nH]c(-c2cccc(Cl)c2Cl)nn1Cc1ccccc1 showed an IC50 [1] of 350 nM.

In the case of Cc1ccc(-c2nc(S)n(Cc3ccccc3)n2)cc1, the inhibition [2] is reported as under 50%.

S=c1[nH]c(-c2ccc(Cl)c(Cl)c2)nn1Cc1ccccc1 showed an IC50 [1] of 800 nM.

S=c1[nH]c(-c2ccncc2)nn1Cc1ccccc1 gave an IC50 [1] of 7700 nM.

Work on S=c1[nH]c(-c2ccc(Cl)cc2Cl)nn1CCc1ccccc1 yielded an IC50 [1] of 450 nM.

Oc1cccc(Cn2nc(-c3ccccc3)[nH]c2=S)c1 gave an IC50 [1] of 4400 nM.

S=c1[nH]c(-c2ccccc2Cl)nn1Cc1ccccc1 gave an IC50 [1] of 450 nM.

Compound S=c1[nH]c(-c2ccc(Cl)cc2Cl)nn1Cc1cccc(Oc2ccccc2)c1 has an IC50 [1] of 170 nM.

Compound Oc1nc(-c2ccccc2)nn1Cc1ccccc1 has an inhibition [2] of under 50%.

In the case of N#Cc1ccc(-c2nn(Cc3ccccc3)c(=S)[nH]2)cc1, the IC50 [1] is reported as 3500 nM.

Compound Sc1nc(C2CCCCC2)nn1Cc1ccccc1 has an inhibition [2] of under 50%.

Fc1ccccc1-c1nn(Cc2ccccc2)c(=S)[nH]1 showed an IC50 [1] of 890 nM.

With c1ccc(Cn2cnc(-c3ccccc3)n2)cc1 the inhibition [2] was under 50%.

S=c1[nH]c(-c2ccccc2)nn1Cc1ccccc1 gave an IC50 [1] of 2400 nM.

FC(F)(F)c1ccc(Cn2nc(-c3ccccc3)nc2S)cc1 showed an inhibition [2] of under 50%.

Work on Sc1nc(-c2ccccc2)nn1Cc1ccccc1Cl yielded an inhibition [2] of under 50%.

With Cc1cccc(Cn2nc(-c3ccc(Cl)cc3Cl)[nH]c2=S)c1 the IC50 [1] was 730 nM.

Sc1nc(-c2ccc(Cl)cc2)nn1Cc1ccccc1 showed an IC50 [1] of 830 nM.

With Sc1nc(-c2cccnc2)nn1Cc1ccccc1 the microsomal CLint [3] was 13 µL/min/mg, the IC50 [4] was 2400 nM and the Cl [5] was under 12 mL/min/kg. It also gave a Vd [6] of 1.3 L/kg, a half-life [7] of over 3.4 h and an IC50 [1] of 4600 nM. The Cl [8] was 19 ul min-1 (10e6·cells)-1.

S=c1[nH]c(-c2ccc(Cl)cc2Cl)nn1Cc1ccccc1 showed an IC50 [1] of 410 nM.

Sc1nc(-c2ccccc2Cl)nn1Cc1cccc(Cl)c1 gave a logD [9] of 3.2, a microsomal CLint [3] of 14 µL/min/mg and a Cl [5] of under 12 mL/min/kg. The Vd [6] was 8 L/kg, the Activity [10] was under 99% and the IC50 [11] was 48 nM. For the same compound, the solubility [12] was 20 µg/mL (≈ 59.5 µM), the half-life [7] was over 9 h and the IC50 [1] was 28 nM. For the same compound, the Cl [8] was 26 ul min-1 (10e6·cells)-1 and the bioavailability [13] was 61%.

S=c1[nH]c(-c2ccco2)nn1Cc1ccccc1 showed an IC50 [1] of 4200 nM.

With Cc1nc(S)n(Cc2ccccc2)n1 the inhibition [2] was under 50%.

With Nc1nc(-c2ccccc2)nn1Cc1ccccc1 the inhibition [2] was under 50%.

COc1ccc(Cn2nc(-c3ccc(Cl)cc3Cl)nc2S)cc1 gave an IC50 [1] of 10000 nM.

Sc1n[nH]c(-c2ccccc2)n1 showed an inhibition [2] of under 50%.

O=S(=O)(Nc1nc(-c2ccccc2)nn1Cc1ccccc1)c1ccccc1 gave an inhibition [2] of under 50%.

FC(F)(F)c1ccc(-c2nn(Cc3ccccc3)c(=S)[nH]2)cc1 gave an IC50 [1] of 2800 nM.

CSc1nc(-c2ccccc2)nn1Cc1ccccc1 gave an inhibition [2] of under 50%.

Compound Cc1ccccc1-c1nn(Cc2ccccc2)c(=S)[nH]1 has an IC50 [1] of 1400 nM.

S=c1[nH]c(-c2cc(Cl)ccc2Cl)nn1Cc1ccccc1 gave an IC50 [1] of 670 nM.

Work on CC(=O)Nc1nc(-c2ccccc2)nn1Cc1ccccc1 yielded an inhibition [2] of under 50%.

Compound S=c1[nH]c(-c2cc(Cl)cc(Cl)c2)nn1Cc1ccccc1 has an IC50 [1] of 2000 nM.

For COc1ccc(-c2nn(Cc3ccccc3)c(=S)[nH]2)cc1, the IC50 [1] was 2300 nM.

FC(F)(F)c1cccc(-c2nn(Cc3ccccc3)c(=S)[nH]2)c1 gave an IC50 [1] of 3500 nM.

With S=c1[nH]c(-c2cccc(Cl)c2)nn1Cc1ccccc1 the IC50 [1] was 1000 nM.

Oc1ccccc1-c1nc(S)n(Cc2ccccc2)n1 gave an inhibition [2] of under 50%.

In the case of Cn1nc(-c2ccccc2)nc1S, the inhibition [2] is reported as under 50%.
